Laboratory results: ChEMBL document CHEMBL1128330, “Anti-human immunodeficiency virus and anti-hepatitis-B virus activities and toxicities of the enantiomers of 2'-deoxy-3'-oxa-4'-thiocytidine and their 5-fluoro analogues in vitro” (J Med Chem, 1995)

Columns and labels:
Settings in all cases: Homo sapiens
H9 [1] = test: Cytotoxic concentration against HIV-1 infected H9 cell lines; type: functional
[2] = Drug concentration which inhibits 50% of growth of cord blood mononuclear cells (CBMCs); type: functional
CCRF-CEM [3] = test: Inhibitory concentration against HIV-1 infected CEM cell lines; type: functional, cell-based
MT4 [4] = test: Inhibitory concentration against HIV-1 infected MT-4 cell lines; type: functional, cell-based
U-937 [5] = test: Cytotoxic concentration against HIV-1 infected U937 cell lines; type: functional
H9 [6] = test: Inhibitory concentration against HIV-1 infected H9 cell lines; type: functional, cell-based
Jurkat [7] = test: Inhibitory concentration against HIV-1 infected Jurkat cell lines; type: functional, cell-based
MT4 [8] = test: Cytotoxic concentration against HIV-1 infected MT-4 cell lines; type: functional
CCRF-CEM [9] = test: Cytotoxic concentration against HIV-1 infected CEM cell lines; type: functional
U-937 [10] = test: Inhibitory concentration against HIV-1 infected U937 cell lines; type: functional, cell-based
Jurkat [11] = test: Cytotoxic concentration against HIV-1 infected Jurkat cell lines; type: functional

Cc1cn([C@H]2C[C@H](N=[N+]=[N-])[C@@H](CO)O2)c(=O)[nH]c1=O [ZIDOVUDINE]
CC50 (H9 [1]): 200 µM
CC50 [2]: 45 µM
IC50 (CCRF-CEM [3]): 10 nM
IC50 (MT4 [4]): 5 nM
CC50 (U-937 [5]): 110 µM
IC50 (H9 [6]): 70 nM
IC50 (Jurkat [7]): 10 nM
CC50 (MT4 [8]): 110 µM
CC50 (CCRF-CEM [9]): 500 µM
IC50 (U-937 [10]): 40 nM
CC50 (Jurkat [11]): > 500 µM
